Experimental data: ChEMBL document CHEMBL3244214, “Molar volume relationships and the specific inhibition of a synaptosomal enzyme by psychoactive cannabinoids” (J Med Chem, 1978)

How the values were obtained:
[1] = Inhibition of mouse brain synaptosomal Lysophosphatidylcholine acyltransferase using substrate [32P]lysophosphatidylcholine and oleoyl-CoA
[2] = Antihemolytic potency against hypotonic lysis-induced erythrocytes (unknown origin) assessed as stabilization; assay type: functional, Erythrocyte
[3] = Molar volume, Vm of the compound at zero temperature; assay type: physicochemical

Structure (SMILES)	pKi [1]	pAH50 [2]	Vm [3]
CC(C)[C@]12CC(=O)[C@H](C)[C@H]1C2	3.15	3	1.132 ×10⁻⁴ m3/mol
CCCCCc1cc(O)c2c(c1)OC(C)(C)[C@@H]1CCC(CO)=C[C@@H]21	4.07	3.72	2.746 ×10⁻⁴ m3/mol
CCCCCCc1cc(O)c2c(c1)OC(C)(C)C1=C2CC(C)CC1 (centres undefined)	3.6	4.03	2.828 ×10⁻⁴ m3/mol
Oc1ccccc1Cl [2-CHLOROPHENOL]	2.48	2.94	8.975 ×10⁻⁵ m3/mol
CCCCCc1cc(O)c(C/C=C(\C)CCC=C(C)C)c(O)c1 [CANNABIGEROL]	3.59	4.66	2.861 ×10⁻⁴ m3/mol
CCCCCc1cc(O)c2c(c1)OC(C)(C)c1ccc(C)cc1-2 [CANNABINOL]	3.26	4.4	2.601 ×10⁻⁴ m3/mol
CN(C)CCCN1c2ccccc2Sc2ccc(Cl)cc21 [CHLORPROMAZINE]	3.1	5.09	2.406 ×10⁻⁴ m3/mol
CCCCCCCCCCO [DECANOL]	3.77	5	1.576 ×10⁻⁴ m3/mol
CCCCCc1cc(O)c2c(c1)OC(C)(C)[C@@H]1CC=C(C)C[C@@H]21 [DELTA-8-TETRAHYDROCANNABINOL]	4.24	3.85	2.687 ×10⁻⁴ m3/mol
CCCCCCCCCCCCO [DODECANOL]	3.39	5.27	1.858 ×10⁻⁴ m3/mol
CCCCCc1cc(O)c2c(c1)OC(C)(C)[C@@H]1CCC(C)=C[C@@H]21 [DRONABINOL]	6.52	4.1	2.687 ×10⁻⁴ m3/mol
CCCCCCCCCO [NONANOL]	3.24	4.39	
CCCCCCCCO [OCTANOL]	2.77	3.63	1.295 ×10⁻⁴ m3/mol
Oc1ccc(Cl)cc1 [PARACHLOROPHENOL]	2.74	3.13	8.975 ×10⁻⁵ m3/mol
CC1=C(/C=C/C(C)=C/C=C/C(C)=C/CO)C(C)(C)CCC1 [RETINOL]	3.82	5.49	2.865 ×10⁻⁴ m3/mol
